Assay results reported in ChEMBL document CHEMBL1201862, “PubChem BioAssay data set” (2004).
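Results reflect a 48-hour exposure of cells in 96-well plates to compound at five concentrations. At the GI50, growth is halved.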 Calls of active or inactive are those of the source. Cut-off read from the data, not from the text of the source: active = GI50 up to about 1.1 µM and inactive = higher.

How the values were obtained:
Experiment in all cases: growth of human tumour cells (NCI), 48 h
786-0 = tested on: 786-0
A498 = tested on: A498
A549 = tested on: A549
ACHN = tested on: ACHN
BT-549 = tested on: BT-549
CAKI-1 = tested on: CAKI-1
CCRF-CEM = tested on: CCRF-CEM
COLO 205 = tested on: COLO 205
DLD-1 = tested on: DLD-1
DU-145 = tested on: DU-145
EKVX = tested on: EKVX
HCT-116 = tested on: HCT-116
HCT-15 = tested on: HCT-15
HL-60 = tested on: HL-60
HOP-18 = tested on: HOP-18
HOP-62 = tested on: HOP-62
HOP-92 = tested on: HOP-92
HT-29 = tested on: HT-29
Hs-578T = tested on: Hs-578T
IGROV-1 = tested on: IGROV-1
K562 = tested on: K562
KM-20L2 = tested on: KM-20L2
KM12 = tested on: KM12
LOX IMVI = tested on: LOX IMVI
LXFL 529 = tested on: LXFL 529
M14 = tested on: M14
M19-MEL = tested on: M19-MEL
MCF7 = tested on: MCF7
MDA-MB-231 = tested on: MDA-MB-231
MDA-MB-435 = tested on: MDA-MB-435
MDA-N = tested on: MDA-N
MOLT-4 = tested on: MOLT-4
Malme-3M = tested on: Malme-3M
NCI-H226 = tested on: NCI-H226
NCI-H23 = tested on: NCI-H23
NCI-H460 = tested on: NCI-H460
NCI-H522 = tested on: NCI-H522
NCI/ADR-RES = tested on: NCI/ADR-RES
OVCAR-3 = tested on: OVCAR-3
OVCAR-4 = tested on: OVCAR-4
OVCAR-5 = tested on: OVCAR-5
OVCAR-8 = tested on: OVCAR-8
PC-3 = tested on: PC-3
RPMI-8226 = tested on: RPMI-8226
RXF 393 = tested on: RXF 393
RXF 631 = tested on: RXF 631
SF-268 = tested on: SF-268
SF-295 = tested on: SF-295
SF-539 = tested on: SF-539
SK-MEL-28 = tested on: SK-MEL-28
SK-MEL-2 = tested on: SK-MEL-2
SK-MEL-5 = tested on: SK-MEL-5
SK-OV-3 = tested on: SK-OV-3
SN12C = tested on: SN12C
SNB-19 = tested on: SNB-19
SNB-75 = tested on: SNB-75
SNB-78 = tested on: SNB-78
SR = tested on: SR
SW-620 = tested on: SW-620
TK-10 = tested on: TK-10
U-251 = tested on: U-251
UACC-257 = tested on: UACC-257
UACC-62 = tested on: UACC-62
UO-31 = tested on: UO-31
XF498 = tested on: XF498
DMS-114 = tested on: DMS-114
DMS-273 = tested on: DMS-273
HCC 2998 = tested on: HCC 2998

C/C(=N\NS(=O)(=O)c1ccc(C)cc1)C(CN(C)C)C(c1ccccc1)c1c(O)c2ccccc2oc1=O (stereo not drawn)
GI50 (786-0): > 100 µM (inactive) | GI50 (A498): > 100 µM (inactive) | GI50 (A549): > 100 µM (inactive) | GI50 (ACHN): > 100 µM (inactive) | GI50 (BT-549): > 100 µM (inactive) | GI50 (CAKI-1): > 100 µM (inactive) | GI50 (CCRF-CEM): > 100 µM (inactive) | GI50 (COLO 205): > 95.3 µM (inactive) | GI50 (DLD-1): > 100 µM (inactive) | GI50 (DU-145): > 100 µM (inactive) | GI50 (EKVX): > 100 µM (inactive) | GI50 (HCT-116): > 100 µM (inactive) | GI50 (HCT-15): > 100 µM | GI50 (HL-60): > 100 µM (inactive) | GI50 (HOP-18): > 100 µM (inactive) | GI50 (HOP-62): 89.9 µM (inactive) | GI50 (HOP-92): 60 µM (inactive) | GI50 (HT-29): > 100 µM (inactive) | GI50 (Hs-578T): > 100 µM (inactive) | GI50 (IGROV-1): > 100 µM (inactive) | GI50 (K562): > 84.5 µM (inactive) | GI50 (KM-20L2): > 100 µM (inactive) | GI50 (KM12): > 100 µM (inactive) | GI50 (LOX IMVI): > 100 µM (inactive) | GI50 (LXFL 529): > 100 µM (inactive) | GI50 (M14): > 100 µM (inactive) | GI50 (M19-MEL): > 100 µM (inactive) | GI50 (MCF7): > 100 µM (inactive) | GI50 (MDA-MB-231): > 100 µM (inactive) | GI50 (MDA-MB-435): > 100 µM (inactive) | GI50 (MDA-N): > 100 µM (inactive) | GI50 (MOLT-4): > 100 µM (inactive) | GI50 (Malme-3M): > 100 µM (inactive) | GI50 (NCI-H226): > 100 µM (inactive) | GI50 (NCI-H23): > 100 µM (inactive) | GI50 (NCI-H460): > 100 µM (inactive) | GI50 (NCI-H522): > 100 µM (inactive) | GI50 (NCI/ADR-RES): > 100 µM (inactive) | GI50 (OVCAR-3): > 100 µM (inactive) | GI50 (OVCAR-4): > 100 µM (inactive) | GI50 (OVCAR-5): > 100 µM (inactive) | GI50 (OVCAR-8): > 100 µM (inactive) | GI50 (PC-3): > 100 µM (inactive) | GI50 (RPMI-8226): > 95.9 µM (inactive) | GI50 (RXF 393): 55.2 µM (inactive) | GI50 (RXF 631): > 100 µM (inactive) | GI50 (SF-268): > 100 µM (inactive) | GI50 (SF-295): > 100 µM (inactive) | GI50 (SF-539): > 100 µM (inactive) | GI50 (SK-MEL-28): > 100 µM (inactive) | GI50 (SK-MEL-2): > 100 µM (inactive) | GI50 (SK-MEL-5): > 100 µM (inactive) | GI50 (SK-OV-3): 99.1 µM (inactive) | GI50 (SN12C): > 100 µM (inactive) | GI50 (SNB-19): > 100 µM (inactive) | GI50 (SNB-75): > 51.9 µM (inactive) | GI50 (SNB-78): > 100 µM (inactive) | GI50 (SR): > 60 µM (inactive) | GI50 (SW-620): > 69.3 µM (inactive) | GI50 (TK-10): > 100 µM (inactive) | GI50 (U-251): > 100 µM (inactive) | GI50 (UACC-257): > 100 µM (inactive) | GI50 (UACC-62): > 86.3 µM (inactive) | GI50 (UO-31): > 81.7 µM (inactive) | GI50 (XF498): > 100 µM (inactive)

CCOC(=O)c1cc2c(nc1N)-c1ncccc1CC2
GI50 (786-0): 82.2 µM (inactive) | GI50 (A498): 76.7 µM (inactive) | GI50 (A549): 38.5 µM (inactive) | GI50 (ACHN): 61.7 µM (inactive) | GI50 (CAKI-1): > 100 µM (inactive) | GI50 (CCRF-CEM): 20.4 µM (inactive) | GI50 (COLO 205): 31.5 µM (inactive) | GI50 (DLD-1): 52.7 µM (inactive) | GI50 (DMS-114): 8.95 µM (inactive) | GI50 (DMS-273): 43.5 µM (inactive) | GI50 (EKVX): 43.8 µM (inactive) | GI50 (HCC 2998): > 100 µM (inactive) | GI50 (HCT-116): 44.3 µM (inactive) | GI50 (HCT-15): 32 µM | GI50 (HL-60): 28.1 µM (inactive) | GI50 (HOP-18): > 100 µM (inactive) | GI50 (HOP-62): 83.8 µM (inactive) | GI50 (HOP-92): > 100 µM (inactive) | GI50 (HT-29): 16.4 µM (inactive) | GI50 (IGROV-1): 49.4 µM (inactive) | GI50 (K562): 27 µM (inactive) | GI50 (KM-20L2): 37.2 µM (inactive) | GI50 (KM12): 49.9 µM (inactive) | GI50 (LOX IMVI): 65.6 µM (inactive) | GI50 (LXFL 529): 50.7 µM (inactive) | GI50 (M14): > 100 µM (inactive) | GI50 (M19-MEL): 89.5 µM (inactive) | GI50 (MOLT-4): 47.6 µM (inactive) | GI50 (Malme-3M): > 100 µM (inactive) | GI50 (NCI-H226): 66.2 µM (inactive) | GI50 (NCI-H23): 37.2 µM (inactive) | GI50 (NCI-H460): 77.1 µM (inactive) | GI50 (NCI-H522): 33.4 µM (inactive) | GI50 (OVCAR-3): 18.5 µM (inactive) | GI50 (OVCAR-4): > 100 µM (inactive) | GI50 (OVCAR-5): > 100 µM (inactive) | GI50 (OVCAR-8): 83.6 µM (inactive) | GI50 (RPMI-8226): 22.6 µM (inactive) | GI50 (RXF 393): > 100 µM (inactive) | GI50 (RXF 631): > 100 µM (inactive) | GI50 (SF-268): > 100 µM (inactive) | GI50 (SF-295): 54.5 µM (inactive) | GI50 (SF-539): > 100 µM (inactive) | GI50 (SK-MEL-28): 36.6 µM (inactive) | GI50 (SK-MEL-2): > 100 µM (inactive) | GI50 (SK-MEL-5): 38.9 µM (inactive) | GI50 (SK-OV-3): 45.1 µM (inactive) | GI50 (SN12C): 94.4 µM (inactive) | GI50 (SNB-19): 59.7 µM (inactive) | GI50 (SNB-75): > 100 µM (inactive) | GI50 (SNB-78): > 100 µM (inactive) | GI50 (SR): 18.7 µM (inactive) | GI50 (SW-620): 59.8 µM (inactive) | GI50 (TK-10): > 100 µM (inactive) | GI50 (U-251): 43.8 µM (inactive) | GI50 (UACC-257): 38.5 µM (inactive) | GI50 (UACC-62): 58.1 µM (inactive) | GI50 (UO-31): 88.1 µM (inactive)
